Like-named read-outs stand apart in the source and are kept apart here.
How the values were obtained:
[1] = test system: PKB Ser473 phosphorylation in Rat1-myr-HA-p110 alpha cells; test: Reverse protein array, PKB Ser473 phosphorylation in Rat1-myr-HA-p110 alpha cells; assay type: cell-based; conditions: Rattus norvegicus, 0.5 h, 30 minutes compound incubation, read-out: p-PKB/IC50_alpha
Method: (§1) No. 15140-114) and 10 μg/ml Puromycine (Sigma, cat. No. P9620).
(§2) The Rat1-myr-HA-p110 alpha, beta and delta cells were trypsinized and counted with a CASY TT cell counter (Schärfe System GmbH, Reutlingen Germany). The cells were diluted in fresh DMEM complete medium and 3×10^4 cells/150 μl/well seeded in 96-well TPP-tissue culture plates (TPP, cat. No. 92096). The plates were incubated at 37° C. and 5% CO2 under humidified condition for at least 20 h. Compound of formula I working solutions were prepared freshly as serial 8 step dilutions (vol/vol) in DMSO on the day of the experiment. The working solutions were further diluted 1/500 in cell culture medium to get final compound concentrations of 10, 3.333, 1.111, 0.370, 0.123, 0.041, 0.014, 0.005 μM. The final DMSO concentration was kept constant at 0.2%. cell culture medium containing 0.2% DMSO was used as vehicle treatment control. Post incubation, the cells were treated with the serial compound dilution. 50 μl of the compound medium mixture was added to the wells containing cells and 150 μl DMEM medium and incubated for 30 minutes (37° C., 5% CO2). After 30 minutes of incubation, the medium mixture was quickly removed by aspiration. For cell lysis, a mixture of 10% CLB1 CeLyA lysis buffer (Zeptosens, cat. No. 9000), 90% CSBL1 CeLyA spotting buffer (Zeptosens, cat. No. 9020) was freshly prepared and supplemented with 1% Octyl β-D-glucopyranoside (SIGMA, cat. No. 08001-5G) and 1 mM Na-Orthovanadate (Sigma, cat No. S-6508). 50 μl of the described lysis buffer mix was added to each well, followed by 10 minutes of incubation on ice. After an additional freeze-thaw cycle, another 50 μl of the lysis buffer mix without Octyl β-D-glucopyranoside was added to the wells, and 90 μl of the cell lysate was transferred to a 96-well V-bottom plate (Fisher Scientific, cat. No. 6067Y), followed by a centrifugation step (5 min, 1500 rpm at 19° C. in an Eppendorf 5810R centrifuge) to remove the unlysed cell debris.
(§3) The samples were spotted onto ZeptoMARK® PWG protein microarray chips (Zeptosens, Witterswil, Switzerland) with the piezoelectric microdispense-based, non-contact Nano-Plotter 2.1 (GeSiM, Grosserkmannsdorf, Germany). Each sample was spotted at 4 different sample concentrations (d1=100%, d2=75%, d3=50%, d4=25%) by diluting the cell lysate with the corresponding volume of lysis buffer mix. After spotting the ZeptoMARK® protein microarrays, the chips are incubated for 1 hour at 37° C. To receive a uniform blocking result, the CeLyA blocking buffer BB1 (Zeptosens, cat. No. 9040) is administered via an ultrasonic nebulizer. After 20 minutes of blocking the chips are extensively rinsed with deionized water (Milli-Q quality, 18MΩ×cm) and dried in a nitrogen air flow.
(§4) After the sample spotting and blocking procedure, the ZeptoMARK® chips were transferred to the ZeptoCARRIER (Zeptosens, cat. No. 1100), whose six flow cells individually address the six arrays on a chip, and washed twice with 200 μl CAB1 CeLyA assay buffer (Zeptosens, cat. No. 9032). The assay buffer was then aspirated and each compartment incubated with 100 μl of the primary target antibody (pAkt Ser473; CST#9271) at RT over night. Post incubation, the primary antibody was removed, the arrays washed twice with CAB1 buffer and further incubated with 100 μl of Alexa fluor 647-labeled anti rabbit IgG Fab fragments (Invitrogen; #Z25305) for one hour at RT in the dark. After incubation, the arrays were washed twice with 200 μl CAB1 buffer. The fluorescence of the target-bound Fab fragments is read out on the ZeptoReader (Zeptosens, Witterswil, Switzerland) using a laser (excitation wavelength 635 nm) and a CCD camera. The fluorescence signal was assessed with exposure times of 1, 3, 5 and 10 seconds, depending on the intensity of the signal. The resulting four images taken per array are stored as 16-bit TIF files. […]

[2] = test system: PKB Ser473 phosphorylation in Rat1-myr-HA-p110 beta cells; test: Reverse protein array, PKB Ser473 phosphorylation in Rat1-myr-HA-p110 beta cells; assay type: cell-based; conditions: Rattus norvegicus, 0.5 h, 30 minutes compound incubation, read-out: p-PKB/IC50_beta
Method: as §1, §2, §3, §4

[3] = test system: PKB Ser473 phosphorylation in Rat1-myr-HA-p110 delta cells; test: Reverse protein array, PKB Ser473 phosphorylation in Rat1-myr-HA-p110 delta cells; assay type: cell-based; conditions: Rattus norvegicus, 0.5 h, 30 minutes compound incubation, read-out: p-PKB/IC50_delta
Method: as §1, §2, §3, §4

[4] = test system: S6 Ribosomal Protein phosphorylation Ser235/236 in TSC1 null mouse embryo fibroblast (MEF) cells; test: Reverse protein array, S6 Ribosomal Protein phosphorylation in TSC1 null MEF cells; assay type: cell-based; conditions: 1 h, TSC1-/- MEFs, 60 minutes
Method: TSC1−/− MEFs cells (provided by D. Kwiatkowski), were cultivated in Dulbecco's modified Eagle's medium (DMEM high Glucose, GIBCO, cat. No. 41956-039) supplemented with 10% heat inactivated fetal bovine calf serum (Amimed, cat. No. 2-01F16-I), 1% L-Glutamine (Invitrogen, cat. No. 25030-02), 1% penicillin-streptomycin (GIBCO, cat. No. 15140-114) at 37° C. in a 5% CO2 and 95% relative humidity atmosphere incubator.
The TSC1−/− cells were trypsinized and counted with a CASY TT cell counter (Schärfe System GmbH, Reutlingen Germany). The cells were diluted in fresh DMEM complete medium and 0.75×10^4 cells/150 μl/well seeded in 96-well TPP-tissue culture plates (TPP, cat. No. 92096). The plates were incubated at 37° C. and 5% CO2 under humidified condition for at least 20 h. Working solutions were prepared freshly as serial 8 step dilutions (vol/vol) in DMSO on the day of the experiment. The working solutions were further diluted 1/5000 in cell culture medium to get final compound concentrations of […]. The final DMSO concentration was kept constant at 0.02%. cell culture medium containing 0.02% DMSO was used as vehicle treatment control. Post incubation, the cells were treated with the serial compound dilution. 50 μl of the compound medium mixture was added to the wells containing cells and 150 μl DMEM medium and incubated for 60 minutes (37° C., 5% CO2). After 60 minutes of incubation, the medium mixture was quickly removed by aspiration. For cell lysis, a mixture of 10% CLB1 CeLyA lysis buffer (Zeptosens, cat. No. 9000), 90% CSBL1 CeLyA spotting buffer (Zeptosens, cat. No. 9020) was freshly prepared and supplemented with 1% Octyl β-D-glucopyranoside (SIGMA, cat. No. 08001-5G) and 1 mM Na-Orthovanadate (Sigma, cat No. S-6508). 50 μl of the described lysis buffer mix was added to each well, followed by 10 minutes of incubation on ice. After an additional freeze-thaw cycle, another 50 μl of the lysis buffer mix without Octyl β-D-glucopyranoside was added to the wells, and 90 μl of the cell lysate was transferred to a 96-well V-bottom plate (Fisher Scientific, cat. No. 6067Y), followed by a centrifugation step (5 min, 1500 rpm at 19° C. in an Eppendorf 5810R centrifuge) to remove the unlysed cell debris.
The spotting of the chips follows the previous described method.
The signal detection and the data analysis follows the previous described method using the pS6 ribosomal protein Ser235/236 (CST, cat. No. #2211) as a primary antibody.

[5] = Parallel Artificial Membrane Permeability Assay (PAMPA) at pH 6.8; assay type: physicochemical
Text: (§5) The physicochemical properties of relevance for the absorption of the compound, such as the solubility and the membrane permeability, especially at a pH close to neutral pH can be measured using the procedure as described by L. ZHOU et al. in JOURNAL OF PHARMACEUTICAL SCIENCES, VOL. 96, NO. 11, p. 3052-3071 (2007) for the solubility at pH 6.8 and the procedure as described by F. Wohnsland and B. Faller in Journal of Medicinal Chemistry Vol 44, p. 923-930 (2001) for the Parallel Artificial Membrane Permeability Assay (PAMPA) at pH 6.8.
The following permeability log Pe was measured for compound of formula (I) as exemplified below: […]

[6] = High-throughput equilibrium solubility at pH 6.8; assay type: physicochemical; conditions: pH 6.8, aqueous buffer, thermodynamic from solid; read-out: HT-Eq Sol/pH 6.8
Text: as §5

For `CCNc1cc(-c2ccc3ncc4c(c3c2)n(-c2ccc(N3CC[C@H](O)C3)nc2C)c(=O)n4C)cnc1CO` [Example 32.6, 8-(5-Ethylamino-6-hydroxymethyl-pyridin-3-yl)-1-[6-((S)-3-hydroxy-pyrrolidin-1-yl)-2-methyl-pyridin-3-yl]-3-methyl-1,3-dihydro-imidazo[4,5-c]quinolin-2-one], the IC50 [1] was 24.3 nM, the IC50 [2] was 39.7 nM and the IC50 [3] was 83.2 nM. For the same compound, the IC50 ([4]; read-out: p-S6 IC50) was 8.6 nM.

With `CNc1ccc(-c2ccc3ncc4c(c3c2)n(-c2ccc(OC)nc2OC)c(=O)n4C)cn1` [Example 8.3, 1-(2,6-Dimethoxy-pyridin-3-yl)-3-methyl-8-(6-methylamino-pyridin-3-yl)-1,3-dihydro-imidazo[4,5-c]quinolin-2-one] the “HT-perm/logPe pH6.8” value [5] was −3.8, the IC50 [1] was 4.57 nM and the IC50 [2] was < 4.57 nM. It also gave an IC50 [3] of 19.5 nM and an IC50 ([4]; read-out: p-S6) of 1.05 nM.

In the case of `COc1ncc(-c2ccc3ncc4c(c3c2)n(-c2ccc(C(C)(C)O)nc2C)c(=O)n4C)c(OC)n1` [Example 31.3, 8-(2,4-Dimethoxy-pyrimidin-5-yl)-1-[6-(1-hydroxy-1-methyl-ethyl)-2-methyl-pyridin-3-yl]-3-methyl-1,3-dihydro-imidazo[4,5-c]quinolin-2-one], the “HT-Perm logPe pH6.8” value [5] is reported as −4.1, the IC50 [1] is reported as 5.3 nM and the IC50 [2] is reported as 132 nM. For the same compound, the IC50 [3] was 26.4 nM and the IC50 ([4]; read-out: p-S6 IC50) was 1 nM.

For `Cc1nc(N2CC[C@@H](O)C2)ccc1-n1c(=O)n(C)c2cnc3ccc(-c4cncc(C(C)(C)C#N)c4)cc3c21` [Example 34.5, 2-(5-{1-[6-((R)-3-Hydroxy-pyrrolidin-1-yl)-2-methyl-pyridin-3-yl]-3-methyl-2-oxo-2,3-dihydro-1H-imidazo[4,5-c]quinolin-8-yl}-pyridin-3-yl)-2-methyl-propionitrile], the IC50 [1] was 30.3 nM, the IC50 [2] was 31 nM and the IC50 [3] was 84.2 nM. The IC50 ([4]; read-out: p-S6 IC50) was 2 nM.

For `CCOc1ccc(-c2ccc3ncc4c(c3c2)n(-c2ccc(OC)nc2C)c(=O)n4C)cn1` [Example 11.1, 8-(6-Ethoxy-pyridin-3-yl)-1-(6-methoxy-2-methyl-pyridin-3-yl)-3-methyl-1,3-dihydro-imidazo[4,5-c]quinolin-2-one], the “HT-perm/logPe pH6.8” value [5] was −3.8, the IC50 [1] was 5.01 nM and the IC50 [2] was 11.7 nM. For the same compound, the IC50 [3] was 92.1 nM and the IC50 ([4]; read-out: p-S6) was 10.6 nM.

For `Cc1cccnc1-n1c(=O)n(C)c2cnc3ccc(-c4ccc(OCCCN(C)C)nc4)cc3c21` [Example 3.7, 8-[6-(3-Dimethylamino-propoxy)-pyridin-3-yl]-3-methyl-1-(3-methyl-pyridin-2-yl)-1,3-dihydro-imidazo[4,5-c]quinolin-2-one], the solubility thermodynamic [6] was > 469 µg/mL and the IC50 [1] was 398 nM.

For `CCOc1ccc(-c2ccc3ncc4c(c3c2)n(-c2ccc(OC)nc2OC)c(=O)n4C)cn1` [Example 8.2, 1-(2,6-Dimethoxy-pyridin-3-yl)-8-(6-ethoxy-pyridin-3-yl)-3-methyl-1,3-dihydro-imidazo[4,5-c]quinolin-2-one], the “HT-perm/logPe pH6.8” value [5] was −4.3, the IC50 [1] was 7.36 nM and the IC50 [2] was 34.6 nM. It also gave an IC50 [3] of 113 nM and an IC50 ([4]; read-out: p-S6) of 7.69 nM.

`CNc1ncc(-c2ccc3ncc4c(c3c2)n(-c2cncc(C)c2)c(=O)n4C)cn1` [Example 17.2, 3-Methyl-8-(2-methylamino-pyrimidin-5-yl)-1-(5-methyl-pyridin-3-yl)-1,3-dihydro-imidazo[4,5-c]quinolin-2-one] gave an IC50 [1] of 46.8 nM, an IC50 [2] of 94.6 nM and an IC50 [3] of 206 nM. For the same compound, the IC50 ([4]; read-out: p-S6 IC50) was 10 nM.

In the case of `Cc1ncccc1-n1c(=O)n(C)c2cnc3ccc(-c4ccc5nccn5c4)cc3c21` [Example 2.23, 8-Imidazo[1,2-a]pyridin-6-yl-3-methyl-1-(2-methyl-pyridin-3-yl)-1,3-dihydro-imidazo[4,5-c]quinolin-2-one], the “HT-Perm logPe pH6.8” value [5] is reported as −5.3, the IC50 [1] is reported as 64.1 nM and the IC50 [2] is reported as 273 nM. For the same compound, the IC50 [3] was 1060 nM and the IC50 ([4]; read-out: p-S6 IC50) was 37 nM.

For `COCCOc1cncc(-c2ccc3ncc4c(c3c2)n(-c2ccc(OC)nc2OC)c(=O)n4C)c1` [Example 8.8, 1-(2,6-Dimethoxy-pyridin-3-yl)-8-[5-(2-methoxy-ethoxy)-pyridin-3-yl]-3-methyl-1,3-dihydro-imidazo[4,5-c]quinolin-2-one], the “HT-Perm logPe pH6.8” value [5] was −3.8, the IC50 [1] was 72.6 nM and the IC50 [2] was 115 nM. The IC50 [3] was 143 nM and the IC50 ([4]; read-out: p-S6 IC50) was 7 nM.

Reference: patent US20100311714A1, “1H-IMIDAZO[4,5-c]QUINOLINONE COMPOUNDS” (priority 2009, published 2010)
